Here are results for six compounds from paper PMC11728000, “Antitumor Activity and Multi-Target Mechanism of Phenolic Schiff Bases Bearing Methanesulfonamide Fragments: Cell Cycle Analysis and a Molecular Modeling Study” (International Journal of Molecular Sciences, 2024).

Some results are limits rather than exact numbers.

The subject of one series is MOLT-4. As to the kind of experiment: NCI anticancer screening (SRB), Leukemia subpanel. In kind it is cell-based, human. Conditions: 10.0 µM in one dose.
A further series concerns RPMI-8226. As to the kind of experiment: NCI anticancer screening (SRB), Leukemia subpanel. In kind it is cell-based, human. The note with it: 10.0 µM in one dose.
The subject of another series is SR. As to the kind of experiment: NCI anticancer screening (SRB), Leukemia subpanel. In kind it is cell-based, human. Conditions: 10.0 µM in one dose.
The test system of a further series is EKVX. As to the kind of experiment: NCI anticancer screening (SRB), Non-Small Cell Lung Cancer subpanel. In kind it is cell-based, human. Conditions: 10.0 µM in one dose.
The test system of a further series is NCI-H226. The series is described as above. In kind it is cell-based, human. The note with it: 10.0 µM in one dose.
Another series has as its system NCI-H23. The description is as above. In kind it is cell-based, human. Conditions: 10.0 µM in one dose.
Another series relates to HCT-116. As to the kind of experiment: NCI anticancer screening (SRB), Colon Cancer subpanel. In kind it is cell-based, human. The note with it: 10.0 µM in one dose.
The test system of a further series is HCT-15. The description is as above. In kind it is cell-based, human. Conditions: 10.0 µM in one dose.
Another series has as its system HT29. The series is described as above. In kind it is cell-based, human. The note with it: 10.0 µM in one dose.
Another series deals with SF-295. Description: NCI anticancer screening (SRB), CNS Cancer subpanel. Conditions: 10.0 µM in one dose. In kind it is cell-based, human.
For another series, the system named is SF-539. The description is as above. In kind it is cell-based, human. The note with it: 10.0 µM in one dose.
The test system of another series is U251. Described as above. In kind it is cell-based, human. Conditions: 10.0 µM in one dose.
The next series has as its system LOX IMVI. As to the kind of experiment: NCI anticancer screening (SRB), Melanoma subpanel. In kind it is cell-based, human. The note with it: 10.0 µM in one dose.
The test system of a further series is SK-MEL-5. Description: NCI anticancer screening (SRB), Melanoma subpanel. The note with it: 10.0 µM in one dose. In kind it is cell-based, human.
For another series, the system named is A498. Description: NCI anticancer screening (SRB), Renal Cancer subpanel. Conditions: 10.0 µM in one dose. In kind it is cell-based, human.
For a further series, the system named is PC-3. As to the kind of experiment: NCI anticancer screening (SRB), Prostate Cancer subpanel. In kind it is cell-based, human. The note with it: 10.0 µM in one dose.
The next series relates to DU-145. Described as above. In kind it is cell-based, human. Conditions: 10.0 µM in one dose.
For a further series, the system named is MDA-MB-231/ATCC. As to the kind of experiment: NCI anticancer screening (SRB), Breast Cancer subpanel. In kind it is cell-based, human. Conditions: 10.0 µM in one dose.
The next series concerns T-47D. Described as above. Conditions: 10.0 µM in one dose. In kind it is cell-based, human.
For the next series, the system named is MDA-MB-468. Described as above. In kind it is cell-based, human. Conditions: 10.0 µM in one dose.
The subject of series [1] is Ovarian Cancer subpanel tumor cell lines. As to the kind of experiment: NCI anticancer screening, subpanel summary. In kind it is cell-based. Conditions: ovarian; 10 µM, joint for compounds named together.
For series [2], the system named is 59 human cancer cell lines. As to the kind of experiment: NCI anticancer screening, full panel summary. Conditions: 10 µM single dose; for MG% (mean growth percent): mean over 59 cell lines; for PCE (positive cytotoxic effect): ratio of cell lines with growth inhibition > 10% to total cell lines.
The nature of another series: in vitro. Conditions: human. Here is the method: the measured protein at the end of the drug treatment as compared to that at the beginning) indicating a net loss of cells following treatment was calculated from [(Ti − Tz)/Tz] […] = − 50.
Values were calculated for each of these three parameters if the activity level was reached; however, if the effect was not reached or exceeded, that parameter's value was expressed as more or less than the maximum or minimum concentration tested. The log GI50, log TGI, and log LC50 were then determined and defined as the mean of the logs of the individual GI50, TGI, and LC50 values. The lowest values are obtained with the most sensitive cell lines. The compound with log GI50 values −4 and <−4 was declared active.
2. In vitro cytotoxic activity towards normal fibroblast (WI-38) cells Cell Lines were obtained from the American Type Culture Collection; cells were cultured using DMEM (Invitrogen/Life Technologies) supplemented with 10% FBS (Hyclone), ten ug/ml of insulin (Sigma), and 1% penicillin–streptomycin. Cultures were removed from the incubator into a laminar flow hood, reconstituted with 3 mL of balanced salt solution without phenol red and serum, and then added to an amount equal to 10% of the culture medium volume. Cultures returned to the incubator for 2–4 h. After the incubation period, the resulting formazan crystals dissolved […]
medium volume. The absorbance was measured Spectrophotometrically at a wavelength of 570 […]
3. In vitro cyclooxygenase (COX-2) inhibition assay
The ability of the test compounds to inhibit COX-2 was determined using an enzyme immunoassay […]
manufacturer’s instructions.

In the next series the test system is CAKI-1. As to the kind of experiment: NCI anticancer screening (SRB), Renal Cancer subpanel. Conditions: 10.0 µM in one dose. In kind it is cell-based, human.
In the next series the test system is UO-31. The description is as above. In kind it is cell-based, human. Conditions: 10.0 µM in one dose.
Another series deals with MCF-7. As to the kind of experiment: NCI anticancer screening (SRB), Breast Cancer subpanel. The note with it: 10.0 µM in one dose. In kind it is cell-based, human.
Series [3] relates to Leukemia subpanel tumor cell lines. As to the kind of experiment: NCI anticancer screening, subpanel summary. In kind it is cell-based. Conditions: leukemia; 10 µM, joint for compounds named together.
Series [4] concerns NSC Lung Cancer subpanel tumor cell lines. Description: NCI anticancer screening, subpanel summary. In kind it is cell-based. The note with it: non-small cell lung; 10 µM, joint for compounds named together.
For series [5], the system named is Breast Cancer subpanel tumor cell lines. As to the kind of experiment: NCI anticancer screening, subpanel summary. In kind it is cell-based. Conditions: breast; 10 µM, joint for compounds named together.
The subject of the next series is UACC-257. Description: NCI anticancer screening (SRB), Melanoma subpanel. In kind it is cell-based, human. Conditions: 10.0 µM in one dose.
Series [6] relates to MCF-7 cells. Description: Annexin V-FITC/PI apoptosis assay. In kind it is cell-based, human. The note with it: 24 h.
Series [7] concerns MCF-7 cells. Description: Cell cycle analysis (PI flow cytometry). The note with it: 10 μM, 24 h. In kind it is cell-based, human. Here is the method: Apoptosis is the primary mechanism by which potent chemotherapeutic agents destroy cancer cells. […] Flow cytometry measured cell growth in the G0-G1, S, and G2/M cell cycle phases.
Using the MCF-7 cell line, the cell cycle analysis was carried out like our previous investigation. A FACSCalibur flow cytometer was used to analyze the cells after they had been stained with DNA fluorochrome PI (Supplementary Materials). […]
photomultiplier voltage and for compensation setting adjustment to eliminate spectral overlap between the FL1 and the FL2 signals.
6. Cell cycle analysis
Breast carcinoma (MCF-7) cell was seeded at 2 × 10^5 cells/well density and incubated for 24 h in six-well plates. Foetal bovine serum (10%) was added, and the cells were incubated at 37 °C in an atmosphere of 5% CO2. The medium was replaced with 1% (v/v) DMSO containing 10.0 μM of […]
with 70% ethanol, rinsed with phosphate-buffered saline, and then stained with the DNA fluorochrome propidium iodide (PI) for 15 min at 37 °C. Then, samples were analyzed by flow cytometry using a FACSCalibur (Becton Dickinson). The cell cycle distributions were calculated using CellQuest software (Becton Dickinson). […]

Another series has as its system HOP-92. As to the kind of experiment: NCI anticancer screening (SRB), Non-Small Cell Lung Cancer subpanel. In kind it is cell-based, human. The note with it: 10.0 µM in one dose.
A further series relates to MALME-3M. Description: NCI anticancer screening (SRB), Melanoma subpanel. In kind it is cell-based, human. The note with it: 10.0 µM in one dose.

One may read the IC50 as the concentration that gives 50% inhibition.

For the compound `Cc1ccc(NC(=O)c2ccc(CN3CCN(C)CC3)cc2)cc1Nc1nccc(-c2cccnc2)n1` [Imatinib, imatinib], the GI% is 18% in the series on MOLT-4; 13% with RPMI-8226; 15% with SR; 16% in the series on EKVX; 11% in the series on NCI-H226; 17% with NCI-H23. In addition, the GI% in the series on HCT-116 was found to be 19%; with HCT-15, 12%; with HT29, 47%; with SF-295, 15%; in the series on SF-539, 25%; in the series with U251 it was 11%. Further, the GI% in the series with LOX IMVI was 12%; with SK-MEL-5 it was 22%; in the series with A498 it was 14%; with PC-3, 11%; in the series with DU-145, 14%; in the series on MDA-MB-231/ATCC, 11%. For the same compound, the GI% turned out to be 19% in the series with T-47D and 29% with MDA-MB-468. For the same compound, in [1], the “GI range in subpanel” value was at least 10.0%. For the same compound, the “MG% (mean growth percent)” value in [2] turned out to be 92.62%; in series [2] (listed as imatinib), 92.6%.
As for `CS(=O)(=O)CCNCc1ccc(-c2ccc3ncnc(Nc4ccc(OCc5cccc(F)c5)c(Cl)c4)c3c2)o1` [Lapatinib, lapatinib], in the series “in vitro”, it took 32 µM to reach half-maximal inhibition (IC50).
Regarding `COc1cc(/C=N/NC(=O)c2ccc(NS(C)(=O)=O)cc2)ccc1O` [Compound 11], the GI% in the series with SR amounted to 10%; in the series with CAKI-1, 16%; in the series with UO-31, 10%; in the series on MCF-7 it was 11%. Further, the “GI range in subpanel” value in series [3] turned out to be 10.0%; in series [4], 23.0%; in series [5], 11.0%. Also, the “PCE (positive cytotoxic effect)” value in series [2] is on record as 4/59.
Take `CS(=O)(=O)Nc1ccc(C(=O)N/N=C/c2ccc(O)cc2)cc1` [Compound 10]: the GI% in the series on UACC-257 was determined as 10%; in the series with A498, 15%; in the series on CAKI-1, 10%; in the series with UO-31, 14%. The figures for the “GI range in subpanel” value in series [3], in series [4] and in [5] were 10.0%, 23.0% and 11.0%, respectively. Besides, the “PCE (positive cytotoxic effect)” value in series [2] is on record as 4/59.
Take `CN[C@@H]1C[C@H]2O[C@@](C)([C@@H]1OC)n1c3ccccc3c3c4c(c5c6ccccc6n2c5c31)C(=O)NC4` [Staurosporine, staurosporine]: the Necrosis with MCF-7 cells [6] came out at 4.04%. Further, the “Total Apoptosis” value in the series with MCF-7 cells [6] (annexin V-FITC/PI) turned out to be 34.39%. For the same compound, the “Early Apoptosis” value in the series with MCF-7 cells [6] (lower-right quadrant) is 8.36%. Further, the “Late Apoptosis” value in the series with MCF-7 cells [6] (upper-right quadrant) is recorded as 21.99%. Also, in the series with MCF-7 cells [7], the “%G0–G1” value is given as 65.74%, the “%G2-M” value is 3.07%, the “%S” value was 31.19% and the “Comment (cell cycle arrest phase)” value was “Growth arrest@G1/S”.
`CS(=O)(=O)Nc1ccc(C(=O)N/N=C/c2cccc(O)c2)cc1` [Compound 9]: the GI% in the series on HOP-92 worked out at 23%; in the series with MALME-3M, 12%; in the series on UO-31 it was 17%. For the same compound, the figures for the “GI range in subpanel” value in [3], in series [4] and in series [5] were 10.0%, 23.0% and 11.0%, respectively. Further, in series [2], the “PCE (positive cytotoxic effect)” value is 3/59.
